Results: patent US10688082B2, “Aminopyrazine compounds with A2A antagonist properties” (Merck Sharp & Dohme Corp., priority 2015, dated 2020)

Target: T1, human A2a receptor (Homo sapiens, UniProt P29274)
T1 construct: purchased Perkin-Elmer RBHA2AM400UA; host or cells: HEK293 cells (membranes)
Assay: Competition binding assay using Scintillation Proximity technology (A2a activity)
Conditions: membranes from HEK293 cells expressing the human A2a receptor; 0.5 nM tritiated ligand; Cheng-Prusoff
Experimental: Binding affinities of compounds of the invention for the human A2a receptor were determined in a competition binding assay using Scintillation Proximity technology. Thus, […] from HEK293 cells expressing the human A2a receptor were incubated with a compound of the invention at concentrations ranging from 3000 nM to 0.15 nM in a reaction mixture containing also 0.5 nM of a tritiated form of 5-amino-7-[2-phenethyl]-2-(furan-2-yl)-7H-pyrazolo[4,3-e][1,2,4]triazolo[1,5-c]pyrimidine (the tritiated compound) and 100 μg of wheat germ agglutin-coated yttrium silicate SPA beads for one hour at room temperature with agitation. The beads were then allowed to settle to the bottom of the wells for 1 hr, after which the membrane-associated radioactivity was determined by scintillation counting in a TopCount microplate reader. Ki values were determined using the Cheng-Prusoff equation.
HEK293 cells expressing the human, rat, dog or monkey adenosine 2a receptor (Purchased from Perkin-Elmer # RBHA2AM400UA).
The Tritiated compound was prepared according to published methods.
Wheat germ agglutinin-coated yttrium silicate SPA beads (GE Healthcare # RPNQ0023). Dilute to 25 mg/ml in assay buffer.
Assay Buffer was prepared using Dulbecco's calcium and magnesium free phosphate buffered saline+10 mM MgCl2
Adenosine deaminase from calf intestine, 10 mg/2 ml (Roche #10 102 105 001).
A2a antagonist standard (9-chloro-1-(2-furanyl)-[1,2,4]triazolo1,5-c]quinazolin-5-amine from Tocris Bioscience)
Make eight 1:3 serial dilutions in 100% DMSO from a 3 mM compound stock
Transfer 50 nl of compound into a 384-well OptiPlate (Perkin Elmer).
Typically, final concentrations of compound used in the assay ranged from 3000 nM to 0.152 nM.
Dilute a solution of the Tritiated compound to 1.25 nM in assay buffer. This is a 2.5× solution. The final concentration in the assay is 0.5 nM. Calculate the concentration by counting two 5 μl aliquots.
Use 0.25 ug of membrane/well. Dilute membranes to 9.7 μg/ml in assay buffer. Treat with 20 ug/ml adenosine deaminase (ADA) for 15 minutes at room temperature to degrade endogenous adenosine.
Use 100 μg/well wheat germ agglutinin-coated yttrium silicate SPA beads.
Mix ADA-treated membranes and SPA beads together for 30 min prior to assay.
To the Perkin-Elmer Optiplate-384 containing the compound titration add 20 μl of 2.5× solution of the Tritiated compound and 30 μl of the membrane-bead mixture. Incubate for one hour at room temperature with agitation.
Include total binding (assay buffer+1% DMSO) and non-specific binding (CGS15943, 1 μM) wells.
Allow the beads to settle for one hour.
A curve fitting program (i.e., Prism, Activity Base, Chemcart) is used to determine the EC50. The Ki value is calculated using the Cheng-Prusoff equation. K i=EC50/(1+(radioligand concentration/Kd))

T1 sequence (P29274 whole entry): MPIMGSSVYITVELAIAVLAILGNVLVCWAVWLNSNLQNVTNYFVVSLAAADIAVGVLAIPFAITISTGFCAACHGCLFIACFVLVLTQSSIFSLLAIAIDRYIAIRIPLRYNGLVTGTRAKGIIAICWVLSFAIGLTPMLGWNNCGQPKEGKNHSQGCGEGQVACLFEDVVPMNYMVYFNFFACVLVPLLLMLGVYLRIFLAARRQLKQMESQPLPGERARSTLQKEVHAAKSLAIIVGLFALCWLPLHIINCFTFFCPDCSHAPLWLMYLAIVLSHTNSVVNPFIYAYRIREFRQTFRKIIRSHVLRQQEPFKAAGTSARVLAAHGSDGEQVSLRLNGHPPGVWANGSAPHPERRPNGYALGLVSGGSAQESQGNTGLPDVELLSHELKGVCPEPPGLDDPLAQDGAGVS

COc1cccc2c1nc(N)n1nc(C(=O)N3CCNCC3)cc21 [Ex-76, (5-amino-7-methoxypyrazolo[1,5-c]quinazolin-2-yl)(piperazin-1-yl)methanone] was tested. Which Ki did it give?
The Ki was 300 nM.

With COc1ccccc1Cc1cc2c3cccc(OC)c3nc(N)n2n1 [Ex-32, 7-methoxy-2-(2-methoxybenzyl)pyrazolo[1,5-c]quinazolin-5-amine] as the compound, how does the Ki read?
Its Ki is 1 nM.

Which Ki does the source give for COc1cccc2c1nc(N)n1nc(C(=O)N3CCC4(CCN(C(=O)OC(C)(C)C)C4)C3)cc21 (stereo not shown) [Ex-85, tert-butyl 7-(5-amino-7-methoxypyrazolo[1,5-c]quinazoline-2-carbonyl)-2,7-diazaspiro[4.4]nonane-2-carboxylate] here?
The Ki was 11 nM.

How did the Ki turn out when Nc1nc2c(F)cccc2c2cc(-c3nnc(-c4cccc5cccnc45)o3)nn12 [Ex-112, 7-fluoro-2-(5-(quinolin-8-yl)-1,3,4-oxadiazol-2-yl)pyrazolo[1,5-c]quinazolin-5-amine] was run?
Its Ki is 131 nM.

COc1cccc2c1nc(N)n1nc(C(=O)NCc3ccc(F)cc3F)cc21 [Ex-77, 5-amino-N-(2,4-difluorobenzyl)-7-methoxypyrazolo[1,5-c]quinazoline-2-carboxamide] was tested. Which Ki did it give?
The Ki was 2 nM.

How did the Ki turn out when COc1cccc2c1nc(N)n1nc(Cc3ccccc3-n3cccn3)cc21 [Ex-63, 2-(2-(1H-pyrazol-1-yl)benzyl)-7-methoxypyrazolo[1,5-c]quinazolin-5-amine] was run?
The Ki was 7 nM.

Nc1nc2ccccc2c2cc(Cc3cccc4cccnc34)nn12 [Ex-94, 2-(quinolin-8-ylmethyl)pyrazolo[1,5-c]quinazolin-5-amine] was tested. Which Ki did it give?
The Ki was 10 nM.

For COc1cccc2c1nc(N)n1nc(Cc3ccccc3C(F)(F)F)cc21 [Ex-17, 7-methoxy-2-(2-(trifluoromethyl)benzyl)pyrazolo[1,5-c]quinazolin-5-amine], which Ki is on record?
Its Ki is 17 nM.

With Nc1nc2c(F)cccc2c2cc(C(=O)N3CCN(c4ccc(F)cc4F)CC3)nn12 [Ex-111, (5-amino-7-fluoropyrazolo[1,5-c]quinazolin-2-yl)(4-(2,4-difluorophenyl)piperazin-1-yl)methanone] as the compound, how does the Ki read?
Its Ki is 94 nM.

For COc1cccc2c1nc(N)n1nc(Cc3cccnc3N3CCOCC3)cc21 [Ex-20, 7-methoxy-2-((2-morpholinopyridin-3-yl)methyl)pyrazolo[1,5-c]quinazolin-5-amine], which Ki is on record?
The Ki was 15 nM.

With Nc1nc2ccc(F)cc2c2cc(Cc3cccc4cccnc34)nn12 [Ex-105, 9-fluoro-2-(quinolin-8-ylmethyl)pyrazolo[1,5-c]quinazolin-5-amine] as the compound, how does the Ki read?
The Ki was 45 nM.

For COc1cccc2c1nc(N)n1nc(Cc3cccc4ccccc34)cc21 [Ex-7, 7-methoxy-2-(naphthalen-1-ylmethyl)pyrazolo[1,5-c]quinazolin-5-amine], which Ki is on record?
Its Ki is 16 nM.

Nc1nc2ccc(F)cc2c2cc(Cc3ccccc3)nn12 [Ex-104, 2-benzyl-9-fluoropyrazolo[1,5-c]quinazolin-5-amine] was tested. Which Ki did it give?
Its Ki is 67 nM.

For COc1cccc2c1nc(N)n1nc(C(=O)N3CCCC3)cc21 [Ex-74, (5-amino-7-methoxypyrazolo[1,5-c]quinazolin-2-yl)(pyrrolidin-1-yl)methanone], which Ki is on record?
The Ki was 5 nM.

COc1cccc2c1nc(N)n1nc(-c3nnc(N4CCN(c5ccccc5)CC4)o3)cc21 [Ex-102, 7-methoxy-2-(5-(4-phenylpiperazin-1-yl)-1,3,4-oxadiazol-2-yl)pyrazolo[1,5-c]quinazolin-5-amine] was tested. Which Ki did it give?
Its Ki is 33 nM.

For COc1cccc2c1nc(N)n1nc(Cc3cccc(C(F)(F)F)c3)cc21 [Ex-36, 7-methoxy-2-(3-(trifluoromethyl)benzyl)pyrazolo[1,5-c]quinazolin-5-amine], which Ki is on record?
The Ki was 12 nM.

With COc1cccc2c1nc(N)n1nc(Cc3cc(F)cc(F)c3)cc21 [Ex-65, 2-(3,5-difluorobenzyl)-7-methoxypyrazolo[1,5-c]quinazolin-5-amine] as the compound, how does the Ki read?
The Ki was 5 nM.

COc1cccc2c1nc(N)n1nc(Cc3cccc(F)c3)cc21 [Ex-31, 2-(3-fluorobenzyl)-7-methoxypyrazolo[1,5-c]quinazolin-5-amine] was tested. Which Ki did it give?
Its Ki is 2 nM.

With COc1cccc2c1nc(N)n1nc(C(=O)N3CCC4(CCN(C(C)=O)C4)C3)cc21 (stereo not shown) [Ex-87, 1-(7-(5-amino-7-methoxypyrazolo[1,5-c]quinazoline-2-carbonyl)-2,7-diazaspiro[4.4]nonan-2-yl)ethan-1-one] as the compound, how does the Ki read?
The Ki was 9 nM.

Which Ki does the source give for COc1cccc2c1nc(N)n1nc(C(=O)N3CCC4(CCN(C(=O)OC(C)(C)C)C4)CC3)cc21 [Ex-83, tert-butyl 8-(5-amino-7-methoxy-pyrazolo[1,5-c]quinazoline-2-carbonyl)-2,8-diazaspiro[4.5]decane-2-carboxylate] here?
Its Ki is 80 nM.

Which Ki does the source give for Nc1nc2ccc(F)cc2c2cc(Cc3cccnc3N3CCOCC3)nn12 [Ex-107, 9-fluoro-2-((2-morpholinopyridin-3-yl)methyl)pyrazolo[1,5-c]quinazolin-5-amine] here?
The Ki was 123 nM.

With COc1cccc2c1nc(N)n1nc(Cc3ccccc3CN3CCCC3)cc21 [Ex-29, 7-methoxy-2-(2-(pyrrolidin-1-ylmethyl)benzyl)pyrazolo[1,5-c]quinazolin-5-amine] as the compound, how does the Ki read?
The Ki was 17 nM.

For COc1cccc2c1nc(N)n1nc(C(=O)N3CCN(Cc4ccccc4)CC3)cc21 [Ex-71, (5-amino-7-methoxypyrazolo[1,5-c]quinazolin-2-yl)(4-benzylpiperazin-1-yl)methanone], which Ki is on record?
Its Ki is 11 nM.

For COc1cccc2c1nc(N)n1nc(-c3nc(Cc4ccccc4)no3)cc21 [Ex-93, 2-(3-benzyl-1,2,4-oxadiazol-5-yl)-7-methoxypyrazolo[1,5-c]quinazolin-5-amine], which Ki is on record?
The Ki was 45 nM.

Which Ki does the source give for COc1cccc2c1nc(N)n1nc(Cc3cc(F)ccc3F)cc21 [Ex-64, 2-(2,5-difluorobenzyl)-7-methoxypyrazolo[1,5-c]quinazolin-5-amine] here?
The Ki was 2 nM.

COc1cccc2c1nc(N)n1nc(Cc3ccnc4ccccc34)cc21 [Ex-14, 7-methoxy-2-(quinolin-4-ylmethyl)pyrazolo[1,5-c]quinazolin-5-amine] was tested. Which Ki did it give?
The Ki was 2 nM.

COCCOc1ccc(N2CCN(CCOc3cccc4c3nc(N)n3nc(-c5ccco5)cc43)CC2)cc1 [Ex-3, 2-(furan-2-yl)-7-(2-(4-(4-(2-methoxyethoxy)phenyl)piperazin-1-yl)ethoxy)pyrazolo[1,5-c]quinazolin-5-amine] was tested. Which Ki did it give?
Its Ki is 677 nM.

Nc1nc2c(F)cccc2c2cc(Cc3ccccc3)nn12 [Ex-108, 2-benzyl-7-fluoropyrazolo[1,5-c]quinazolin-5-amine] was tested. Which Ki did it give?
Its Ki is 14 nM.

Which Ki does the source give for COc1cccc2c1nc(N)n1nc(Cc3cccc(N4CCOCC4)c3)cc21 [Ex-23, 7-methoxy-2-(3-morpholinobenzyl)pyrazolo[1,5-c]quinazolin-5-amine] here?
Its Ki is 26 nM.

COc1cccc2c1nc(N)n1nc(Cc3cccc(Cl)c3Cl)cc21 [Ex-43, 2-(2,3-dichlorobenzyl)-7-methoxypyrazolo[1,5-c]quinazolin-5-amine] was tested. Which Ki did it give?
The Ki was 80 nM.

For Nc1nc2ccc(F)cc2c2cc(C(=O)N3CCN(c4ccc(F)cc4F)CC3)nn12 [Ex-114, (5-amino-9-fluoropyrazolo[1,5-c]-quinazolin-2-yl)(4-(2,4-difluorophenyl)piperazin-1-yl)methanone], which Ki is on record?
The Ki was 8 nM.

How did the Ki turn out when COc1cccc2c1nc(N)n1nc(Cc3cccc(Cl)c3)cc21 [Ex-49, 2-(3-chlorobenzyl)-7-methoxypyrazolo[1,5-c]quinazolin-5-amine] was run?
Its Ki is 35 nM.

How did the Ki turn out when CCN1CCN(c2ccccc2Cc2cc3c4cccc(OC)c4nc(N)n3n2)CC1 [Ex-26, 2-(2-(4-ethylpiperazin-1-yl)benzyl)-7-methoxypyrazolo[1,5-c]quinazolin-5-amine] was run?
Its Ki is 120 nM.

COc1cccc2c1nc(N)n1nc(Cc3c(F)cccc3Cl)cc21 [Ex-38, 2-(2-chloro-6-fluorobenzyl)-7-methoxypyrazolo[1,5-c]quinazolin-5-amine] was tested. Which Ki did it give?
Its Ki is 25 nM.

With Nc1nc2ccccc2c2cc(Cc3ccccc3CN3CCOCC3)nn12 [Ex-97, 2-(2-(morpholinomethyl)-bcnzyl)pyrazolo[1,5-c]-quinazolin-5-amine] as the compound, how does the Ki read?
Its Ki is 51 nM.

For COc1cccc2c1nc(N)n1nc(Cc3ccccc3N(C)C)cc21 [Ex-47, 2-(2-(dimethylamino)benzyl)-7-methoxypyrazolo[1,5-c]quinazolin-5-amine], which Ki is on record?
The Ki was 1 nM.

For COc1cccc2c1nc(N)n1nc(Cc3ccc(C(F)(F)F)cc3)cc21 [Ex-35, 7-methoxy-2-(4-(trifluoromethyl)benzyl)pyrazolo[1,5-c]quinazolin-5-amine], which Ki is on record?
The Ki was 130 nM.
